Data from patent publication US7625951B2, “Stimuli-responsive hydrogel microdomes integrated with genetically engineered proteins for high-throughput screening of pharmaceuticals” (University of Kentucky Research Foundation, priority 2000, dated 2009).

What was measured:
[1] = system: calmodulin (CaM109); test: Fluorescence assay of conformation change in fluorophore (MDCC)-labeled CaM109 monomer and dimer; format: binding; conditions: added to labeled calmodulin molecules that had already bound calcium
Description: In order to measure the extent of conformation change in CaM molecules in response to calcium and phenothiazine binding, a system has been developed in which a fluorophore is conjugated to a cysteine residue that had been inserted at amino acid 109 of wild type CaM using methods well known to those skilled in the art. This CaM mutant was called CaM109. The fluorescence of the fluorophore increases as the conformation of CaM changes in the presence of calcium.
Since wild-type CaM contains no cysteines, the addition of a cysteine to CaM at a desired position within the protein, allows for labeling of the protein at this position. Such labeling was done using a thiol-reactive fluorescent label called N-[2-(1-maleimidyl)ethyl]-7-(diethylamino)coumarin-3-carboxamide, or MDCC.
The fluorescence response of MDCC-labeled, CaM109 molecules was recorded in the absence and presence of 3×10^6 M Ca^++. The Ca^++ concentration was controlled by EGTA at pH 8.0, and the free Ca^++ concentrations were calculated using the software program Chelator (Haugland, 1996, Handbook of Fluorescent Probes and Research Chemicals, 6th edition, Molecular Probes, Eugene, Oreg., p. 52).

[2] = system: calmodulin (CaM); test: Swelling response of CaM-integrated hydrogel / hydrogel microdomes to free ligand
Description: The hydrogel can swell when chlorpromazine (CPZ) is integrated into the hydrogel polymer network because immobilized phenothiazine is displaced from CaM by free CPZ. Phenothiazine is released from its CaM binding site and replaced by CPZ creating a relaxation of polymer chains. This relaxation allows more water to permeate the porous hydrogel polymer network, thus hydrogel swelling occurs.
In the first stage, CaM is bound to a phenothiazine. In the presence of CPZ, competitive binding occurs, and the non-covalent crosslinking is released creating expansion of the hydrogel network.
While the collective array can be used to visually screen for an analyte, the individually addressable microdome array is analyzed using a laser screening system to detect the change in height of the microdomes. The initial size of the hydrogel microdome, including the height of the microdome, is determined using the stylus profilometer. […] The microdome array 22 on substrate 24 is placed on a stage micrometer 26. A light generating means 14 such as a laser diode generates a light beam 16 that is reflected off the top of microdome 22 to produce a diffracted light 18 that is captured by photodiode 20. By positioning the microdome 22 on the stage micrometer 26, the initial height of the microdome can be determined by the amount of light deflected off the top of the microdome 22 by counting the number of photons detected by the photodiode 20.
After the initial reading, the microdome is not moved. A test solution is applied to the microdome for about 1 to 3½ minutes and then is removed and if the microdome swells, the amount of photons emitted off the microdome will change due to the swelling. The swell time for the hydrogel microdome is about 3½ minutes after the solution is applied to the microdome. […] After the test, the stage micrometer can be adjusted to bring another near by microdome in the array into the sensing area.

Row | SMILES | fluorescence quenched [1] | binding affinity for CaM (relative) ([2]; displacement of immobilized phenothiazine from the CaM binding site in the hydrogel) | swelling of protein-hydrogel microdomes ([2]; microdomes on polymethyl methacrylate or silanized glass slides) | swelling of CaM hydrogel with immobilized phenyl ligand (4-phenyl-1-butene) ([2]; phenothiazine derivative replaced with 4-phenyl-1-butene, swelling irreversible, FIG. 17)
1 | c1ccc2c(c1)Nc1ccccc1S2 [phenothiazine] | 100% | – | – | –
2 | CN(C)CCCN1c2ccccc2Sc2ccc(Cl)cc21 [chlorpromazine] | – | higher binding affinity for CaM than phenothiazine | swelling occurred | the hydrogel swells
